What was measured:
[1] = test system: Lactobacillus johnsonii (CNCM I-1225) fresh cells; experiment: Treatment of NESCAFE PROTECT with L. johnsonii fresh cells, HPLC of chlorogenic and phenolic acids
Protocol: (§1) Cells of L. johnsonii (CNCM I-1225) were grown (7.0 E08 cfu/ml) and centrifuged (5000 g, 10 min), the pellets were resuspended in phosphate buffer (50 mM, pH 7.0) at a concentration of 0.61 g/ml. […] Samples were withdrawn at different reaction times, centrifuged (3000 g, 5 min) and filtered through 0.45 μm pore size syringe filters (Millipore SLHA 025 BS) and analysed by HPLC.
A reaction control was run in parallel under the same reaction conditions but without bacteria.
(§2) Coffee samples were diluted to 1% w/w and analyzed by RP-HPLC on a CC 250/4 Nucleosil 100-5-C18 column (Macherey-Nagel). The eluent system was Millipore water, 0.1% TFA and CH3CN at a flow rate of 1 mL/min. The method allowed the simultaneous determination of caffeoyl quinic acids (CQA), feruloyl quinic acids (FQA), di-caffeoyl quinic acids (diCQA), feruloyl quinic acid-lactones, caffeic acid (CA) and ferulic acid (FA) (absorbance at 325 nm) using external standard calibration curves. Results were expressed relative to the reference at time 0 (t0) or to the reference at the same time without bacteria.

Chlorogenate esterase = experiment: Incubation of coffee extracts with chlorogenate esterase, HPLC; type: biochemical, Aspergillus japonicus
Protocol: as §2
Chlorogenate esterase (24 U/g), derived from Aspergillus japonicus (Kikkoman, Japan). Tannase from Aspergillus oryzae (Kikkoman, Japan) Preparation of Bacteria Cells
A solution of chlorogenate esterase (25 mg) in 200 μl phosphate buffer (pH 7.0) was added to 800 μl of a coffee solution (3%). The mixture was then incubated at 37° C. for 4 h, 16 h and 24 h. After reaction time, the enzymatic activity was stopped by heat treatment (3 min, 90° C.) and the mixture was filtered before analysis.

[2] = test system: concentrated preparation of Lactobacillus johnsonii (CNCM I-1225); experiment: Treatment of NESCAFE with concentrated preparation of L. johnsonii, HPLC
Protocol: 400 mg of NESCAFE SPECIAL FILTRE® (a dried extract of roasted coffee beans) were dissolved in 1 ml of boiling water and the solution was cooled to 37° C. at room temperature. To 250 μl of this coffee solution, different amounts of concentrated preparation of Lactobacillus johnsonii (50 μl, 100 μl, 350 μl, 750 μl) were added and the volume was adjusted to 1 ml with water. The mixtures were than incubated at 37° C. for 2 h and 4 h. After centrifugation (3000 g, 5 min) and filtration the samples were analysed by HPLC.
as §2

[3] = test system: Lactobacillus johnsonii (CNCM I-1225) extract (lysed cells); experiment: Treatment of NESCAFE PROTECT with L. johnsonii extract (lysed cells), HPLC; type: biochemical
Protocol: as §1, with “g/ml. The cells were then lysed using the glass-beads method. 600 μl of cells preparation were put in screw-cap tubes and 600 μl of glass-beads were added at 0° C. The tubes were then put into a Mini-Beadbeater for 1 min of intense shaking, cooled in ice, and put another 1 min in the Mini-Beadbeater.” for “g/ml.”, “min),” for “min) and”
as §2

[4] = test system: spray-dried preparation of Lactobacillus johnsonii (CNCM I-1225); experiment: Treatment of NESCAFE PROTECT with spray-dried preparation of L. johnsonii, HPLC
Protocol: To this solution, 10 mg of a spray-dried preparation of Lactobacillus johnsonii (CNCM I-1225) (3.3 E9 cfu/g) were added. The mixture was then incubated at 37° C. and samples were withdrawn at different reaction times. After centrifugation (3000 g, 5 min) and filtration (0.45 μm pore size syringe filters, Millipore SLHA 025 BS) the samples were analysed by HPLC.
as §2

[5] = test system: spray-dried preparation of Lactobacillus johnsonii (CNCM I-1225); experiment: Treatment of green coffee extract with spray-dried preparation of L. johnsonii, HPLC
Protocol: 30 mg of a dried green coffee extract was dissolved in 1 ml phosphate buffer (50 mM, pH 7.0) or in 1 ml water. To this solution, 10 mg of a spray-dried preparation of Lactobacillus johnsonii (3.3 E9 cfu/g) was added. The mixture was then incubated at 37° C. and samples were withdrawn at different reaction times. After centrifugation (3000 g, 5 min) and filtration (0.45 μm pore size syringe filters, Millipore SLHA 025 BS) the samples were analysed by HPLC.
as §2

[6] = test system: Lactobacillus johnsonii (CNCM I-1225); experiment: Treatment of coffee extracts with bacteria cells (L. johnsonii), HPLC
Protocol: as §2
(§3) Tested strains were harvested (centrifugation at 5000 g for 10 min) after having well reached stationary phase, corresponding to 16 hours of incubation in culture medium at 37° C. in anaerobic atmosphere without agitation. For a first activation of the strains, frozen stock cultures were inoculated in fresh media and grown overnight. This pre-culture was used to inoculate the culture.
(§4) After culture of bacteria and centrifugation, the pellets were resuspended in phosphate buffer (pH 7.0) at a concentration of 0.61 g/ml. To 200 μl of this cells preparation, 800 μl of a coffee solution (3%) was added and the mixture was incubated at 37° C. for 4 h, 16 h and 24 h.

[7] = test system: Bifidobacterium lactis BB12 (CNCM I-3446); experiment: Treatment of coffee extracts with bacteria cells (B. lactis), HPLC
Protocol: as §2, §3, §4

[8] = NESCAFE PROTECT + Chlorogenate esterase, 4 h
[9] = NESCAFE PROTECT + Chlorogenate esterase, 16 h
[10] = NESCAFE PROTECT + Chlorogenate esterase, 24 h
[11] = green coffee extract + Chlorogenate esterase, 4 h
[12] = green coffee extract + Chlorogenate esterase, 16 h
[13] = green coffee extract + Chlorogenate esterase, 24 h
[14] = NESCAFE PROTECT + Lactobacillus johnsonii, 4 h
[15] = NESCAFE PROTECT + Lactobacillus johnsonii, 16 h
[16] = NESCAFE PROTECT + Lactobacillus johnsonii, 24 h
[17] = green coffee extract + Lactobacillus johnsonii, 4 h
[18] = green coffee extract + Lactobacillus johnsonii, 16 h
[19] = green coffee extract + Lactobacillus johnsonii, 24 h
[20] = NESCAFE PROTECT + Bifidobacterium lactis, 4 h
[21] = NESCAFE PROTECT + Bifidobacterium lactis, 16 h
[22] = NESCAFE PROTECT + Bifidobacterium lactis, 24 h
[23] = green coffee extract + Bifidobacterium lactis, 4 h
[24] = green coffee extract + Bifidobacterium lactis, 16 h
[25] = green coffee extract + Bifidobacterium lactis, 24 h

O=C(O)/C=C/c1ccc(O)c(O)c1 [CA, caffeic acid]
Concentration in % relative to untreated reference at t = 0 ([1]; 6 h, cell preparation 100 uL): 10111% | Concentration in % relative to untreated reference at t = 0 ([1]; 6 h, cell preparation 350 uL): 14282% | Concentration in % relative to untreated reference at t = 0 ([1]; 6 h, cell preparation 750 uL): 13215% | Concentration in % relative to untreated reference at t = 0 ([1]; 24 h, cell preparation 100 uL): 13661% | Concentration in % relative to untreated reference at t = 0 ([1]; 24 h, cell preparation 350 uL): 15981% | Concentration in % relative to untreated reference at t = 0 ([1]; 24 h, cell preparation 750 uL): 13238% | % relative to untreated control at t = 0 (Chlorogenate esterase; [8]): 10879% | % relative to untreated control at t = 0 (Chlorogenate esterase; [9]): 10198% | % relative to untreated control at t = 0 (Chlorogenate esterase; [10]): 10750% | % relative to untreated control at t = 0 (Chlorogenate esterase; [11]): 18917% | % relative to untreated control at t = 0 (Chlorogenate esterase; [12]): 17275% | % relative to untreated control at t = 0 (Chlorogenate esterase; [13]): 18318% | % relative to untreated control at t = 0 ([2]; cell amount 50 μL/1 mL, 2 h): 1737% | % relative to untreated control at t = 0 ([2]; cell amount 50 μL/1 mL, 4 h): 1763% | % relative to untreated control at t = 0 ([2]; cell amount 100 μL/1 mL, 2 h): 2885% | % relative to untreated control at t = 0 ([2]; cell amount 100 μL/1 mL, 4 h): 2803% | % relative to untreated control at t = 0 ([2]; cell amount 350 μL/1 mL, 2 h): 5752% | % relative to untreated control at t = 0 ([2]; cell amount 350 μL/1 mL, 4 h): 4491% | % relative to untreated control at t = 0 ([2]; cell amount 750 μL/1 mL, 2 h): 7292% | % relative to untreated control at t = 0 ([2]; cell amount 750 μL/1 mL, 4 h): 5514% | Concentration in % relative to untreated reference at t = 0 ([3]; 2 h, cell preparation 100.0 uL): 10729% | Concentration in % relative to untreated reference at t = 0 ([3]; 2 h, cell preparation 350.0 uL): 13901% | Concentration in % relative to untreated reference at t = 0 ([3]; 6 h, cell preparation 100.0 uL): 12581% | Concentration in % relative to untreated reference at t = 0 ([3]; 6 h, cell preparation 350.0 uL): 16300% | % relative to untreated control at t = 0 ([4]; 2 h): 3598% | % relative to untreated control at t = 0 ([4]; 6 h): 6140% | % relative to untreated control at t = 0 ([4]; 24 h): 7879% | % relative to untreated control at t = 0 ([5]; 4 h): 2673% | % relative to untreated control at t = 0 ([5]; 6 h): 3762% | % relative to untreated control at t = 0 ([5]; 16 h): 5182% | % relative to untreated control at t = 0 ([5]; 24 h): 6145% | % relative to untreated control at t = 0 [6, 14]: 7942% | % relative to untreated control at t = 0 [6, 15]: 9429% | % relative to untreated control at t = 0 [6, 16]: 9933% | % relative to untreated control at t = 0 [6, 17]: 12505% | % relative to untreated control at t = 0 [6, 18]: 17148% | % relative to untreated control at t = 0 [6, 19]: 18107% | % relative to untreated control at t = 0 [7, 20]: 968% | % relative to untreated control at t = 0 [7, 21]: 2258% | % relative to untreated control at t = 0 [7, 22]: 2840% | % relative to untreated control at t = 0 [7, 23]: 1521% | % relative to untreated control at t = 0 [7, 24]: 4182% | % relative to untreated control at t = 0 [7, 25]: 5283%

di-caffeoyl quinic acids [diCQA]
Concentration in % relative to untreated reference at t = 0 ([1]; 6 h, cell preparation 100 uL): 23% | Concentration in % relative to untreated reference at t = 0 ([1]; 6 h, cell preparation 350 uL): 0% | Concentration in % relative to untreated reference at t = 0 ([1]; 6 h, cell preparation 750 uL): 0% | Concentration in % relative to untreated reference at t = 0 ([1]; 24 h, cell preparation 100 uL): 2% | Concentration in % relative to untreated reference at t = 0 ([1]; 24 h, cell preparation 350 uL): 0% | Concentration in % relative to untreated reference at t = 0 ([1]; 24 h, cell preparation 750 uL): 0% | % relative to untreated control at t = 0 (Chlorogenate esterase; [8]): 0% | % relative to untreated control at t = 0 (Chlorogenate esterase; [9]): 0% | % relative to untreated control at t = 0 (Chlorogenate esterase; [10]): 1% | % relative to untreated control at t = 0 (Chlorogenate esterase; [11]): 0% | % relative to untreated control at t = 0 (Chlorogenate esterase; [12]): 0% | % relative to untreated control at t = 0 (Chlorogenate esterase; [13]): 0% | % relative to untreated control at t = 0 ([2]; cell amount 50 μL/1 mL, 2 h): 86% | % relative to untreated control at t = 0 ([2]; cell amount 50 μL/1 mL, 4 h): 75% | % relative to untreated control at t = 0 ([2]; cell amount 100 μL/1 mL, 2 h): 68% | % relative to untreated control at t = 0 ([2]; cell amount 100 μL/1 mL, 4 h): 56% | % relative to untreated control at t = 0 ([2]; cell amount 350 μL/1 mL, 2 h): 23% | % relative to untreated control at t = 0 ([2]; cell amount 350 μL/1 mL, 4 h): 15% | % relative to untreated control at t = 0 ([2]; cell amount 750 μL/1 mL, 2 h): 6% | % relative to untreated control at t = 0 ([2]; cell amount 750 μL/1 mL, 4 h): 6% | Concentration in % relative to untreated reference at t = 0 ([3]; 2 h, cell preparation 100.0 uL): 8% | Concentration in % relative to untreated reference at t = 0 ([3]; 2 h, cell preparation 350.0 uL): 1% | Concentration in % relative to untreated reference at t = 0 ([3]; 6 h, cell preparation 100.0 uL): 1% | Concentration in % relative to untreated reference at t = 0 ([3]; 6 h, cell preparation 350.0 uL): 1% | % relative to untreated control at t = 0 ([5]; 4 h): 67% | % relative to untreated control at t = 0 ([5]; 6 h): 53% | % relative to untreated control at t = 0 ([5]; 16 h): 32% | % relative to untreated control at t = 0 ([5]; 24 h): 20% | % relative to untreated control at t = 0 [6, 14]: 18% | % relative to untreated control at t = 0 [6, 15]: 2% | % relative to untreated control at t = 0 [6, 16]: 2% | % relative to untreated control at t = 0 [6, 17]: 35% | % relative to untreated control at t = 0 [6, 18]: 6% | % relative to untreated control at t = 0 [6, 19]: 3% | % relative to untreated control at t = 0 [7, 20]: 91% | % relative to untreated control at t = 0 [7, 21]: 72% | % relative to untreated control at t = 0 [7, 22]: 67% | % relative to untreated control at t = 0 [7, 23]: 85% | % relative to untreated control at t = 0 [7, 24]: 70% | % relative to untreated control at t = 0 [7, 25]: 64%

Reference: US8481028B2, “Compositions for preparing a coffee beverage comprising hydrolysed chlorogenic acid” (Nestec S.A., priority 2008, dated 2013)
